# Experimental data taken from US20240199604A1, “SUPRAMOLECULAR POLYMER THERAPEUTICS AND DIAGNOSTICS” (The Regents of the University of California, priority 2022, published 2024).
# Target: T1, α-synuclein fibrils isolated from an MSA patient sample (Homo sapiens, UniProt P37840)
# T1 construct: fresh-frozen tissue from the cerebellum of patients clinically and neuropathologically diagnosed with MSA; from tissue; host or cells: cerebellum of MSA patients (sarkosyl-insoluble fraction)
# Assay: Cryo-EM co-structure with α-synuclein fibrils from MSA patient samples
# Type: binding
# Settings: fibrils from MSA patient sample, cryoelectronic microscopy
# Experimental: MSA filament purification. Filament purification was based on Schweigenhauser et al., 2020^2. Briefly, 1-2 g of fresh-frozen tissue from the cerebellum of patients clinically and neuropathologically diagnosed with MSA was homogenized at 20 mL/g of tissue in 10 mM Tris-HCl (pH 7.4), 800 mM NaCl, 1 mM EGTA, and 10% sucrose. A final concentration of 1% N-laurosarcosinate (w/v) was added to the homogenates, and these mixtures were incubated at 37° C. for 30 minutes. Homogenates were then centrifuged at 10,000 g for 10 minutes, and the supernatant was kept and then centrifuged at 100,000 g for 20 minutes. The pellets were resuspended at 500 μL/g of frozen tissue in 10 mM Tris-HCl (pH 7.4), 800 mM NaCl, 1 mM EGTA, and 10% sucrose. This was followed by another centrifugation at 3,000 g for 5 minutes. The supernatant was kept and diluted threefold with 50 mM Tris-HCl (pH 7.4), 150 mM NaCl, 10% sucrose, and 2% sarkosyl, followed by another centrifugation at 150,000 g for 1 hour. The final pellet resuspended in 30 mM Tris-HCl (pH 7.4) at a concentration of […] frozen tissue.
# Cryo-EM sample preparation and data collection. Purified frontal cortex and cerebellum tissue was incubated with 20 μM ligand for 45 minutes prior to freezing. For the tau PHF, 3 μL of purified filaments mixed with GTP-1 was added to a glow-discharged 200 mesh 1.2/1.3R Au Quantifoil grid for 10 seconds before blotting for 2 seconds, and then a second 3 μL aliquot was added for 3 seconds and blotted for 1 second before being plunge frozen in liquid ethane using a FEI Vitrobot Mark IV (Thermo Fisher Scientific). For the synuclein ligands, 3 μL of purified filaments mixed with compound was added to a 200 mesh 1.2/1.3R Au Quantifoil grid coated with a 2 nm thick layer of carbon, which had not been glow discharged. After 30 seconds, grids were blotted for 7.5 seconds at room temperature and 100% humidity. Grids were plunge frozen in liquid ethane using a FEI Vitrobot Mark IV. […] A defocus range of 0.8 to 1.8 μm was used with a total exposure time of 2.024 seconds fractionated into 0.025 seconds subframes. The total dose for each movie was 46 electrons/Å^2. Movies were motion-corrected using MotionCor2^3 in Scipion^4 and were Fourier cropped by a factor of 2 to a final pixel size of 0.834 Å per pixel.
# Image processing. All image processing was done in RELION 4^5, and the same workflow was used for each dataset. Dose-weighted summed micrographs were imported into RELION 4. The contrast transfer function was estimated using CTFFIND-4.1^6. Filaments were manually picked and then segments were extracted with a box size of 900 pixels downscaled to 300 pixels. Contaminants and segments contributing to straight filaments were separated out using reference-free 2D class averaging. The remaining segments were re-extracted with a box size of 288 pixels without downscaling. An initial model was generated from a cylinder in RELION. One or more rounds of 3D classification with image alignment were performed, with helical rise and […] parameters fixed to eliminate obvious junk particles. One or more rounds of 3D auto-refinement was run using the best map from 3D classification low-pass filtered to 10 Å, allowing rise and twist parameters to vary. Maps were sharpened using the standard post-processing procedures in RELION.
# Model building, refinement, and analysis. Prior to ligand placement, a single strand of a previously solved MSA or tau PHF filament stutr^2 (PDB: 6XYQ) was refined against the density using Phenix^7. Refinement of the ligand binding pocket was done in COOT^8. Ligands were placed by hand in the density using Chimera^9. This model was then translated to give a stack spanning 5 rungs.
row,SMILES,co-structure of supramolecular polymeric inhibitor with α-synuclein fibrils
1,Cc1nccc2cc(-c3nc(-n4ccc5cccnc5c4=O)c(-c4ccc(C(F)(F)F)cc4)o3)ccc12 [compound 427],bound to fibrils isolated from an MSA patient sample

# Tested on: not listed separately
# Assay: Parallel Artificial Membrane Permeability Assay (PAMPA)
# Type: in vitro ADME
# Settings: 200 uM test compound, 4 hr
# Experimental: Parallel Artificial Membrane Permeability Assay (PAMPA). 5 uL of 1% lecithin (VWR 0579) dissolved in n-dodecane (Sigma Aldrich D221104) was applied to each well of a MultiScreen IP PAMPA filter plate (Millipore MAIPSWU10) and allowed to equilibrate for 5 minutes. 300 uL of PBS was added to the acceptor plate and 150 uL of 200 uM test compound dissolved in PBS and 30% ethanol was added to the donor wells before incubating the donor plate in the acceptor plate for 4 hr at 500 rpm. 100 uL was sampled from the donor and acceptor wells and the concentrations were measured by liquid chromatography-mass spectrometry (SCIEX 4500) or UV-VIS plate reader (BMG).
row,SMILES,PAMPA: P_app pH 7.4
1,CNC(=O)c1ncc2c(-c3ccc(F)cc3)nn(Cc3ccccc3)c2n1 [Compound 250],>50 ×10e−6 cm/sec
2,CC(=O)Nc1ncc2c(-c3ccccc3C)nn(Cc3ccccc3)c2n1 [Compound 266],>50 ×10e−6 cm/sec
3,CCc1ccccc1-c1nn(-c2ccc(F)cc2)c2nc(C(=O)NC)ncc12 [Compound 245],>50 ×10e−6 cm/sec
4,CCn1nc(-c2ccccc2)c2cnc(NC(C)=O)nc21 [Compound 277],>50 ×10e−6 cm/sec
5,CC(=O)Nc1ncc2c(-c3ccccc3)nn(CC3CCCCC3)c2n1 [Compound 280],19.5 ×10e−6 cm/sec
6,CNc1nc(=O)n(-c2nc(-c3cccc(Cl)c3)oc2-c2ccc(Cl)c(F)c2)cc1F [Compound 1],>50.0 ×10e−6 cm/sec
7,CNC(=O)c1ncc2c(-c3ccccc3)nn(-c3ccc(F)cc3)c2n1 [Compound 246],>50 ×10e−6 cm/sec
8,CC(=O)Nc1ncc2c(-c3ccccc3)nn(Cc3ccccn3)c2n1 [Compound 278],>50 ×10e−6 cm/sec
9,CNC(=O)c1ncc2c(-c3cc(F)cc(F)c3)nn(Cc3ccccc3)c2n1 [Compound 252],>50 ×10e−6 cm/sec

# Target: T2, YFP-tagged 0N4R-Tau P301S aggregates seeded with 416-AD11A lysate (Homo sapiens, UniProt P10636, P618S)
# T2 construct: C-terminally YFP-tagged full length 0N4R-Tau; expressed in transfected cells
# T2 sequence (P10636 1-383 isoform P10636-6 P243S): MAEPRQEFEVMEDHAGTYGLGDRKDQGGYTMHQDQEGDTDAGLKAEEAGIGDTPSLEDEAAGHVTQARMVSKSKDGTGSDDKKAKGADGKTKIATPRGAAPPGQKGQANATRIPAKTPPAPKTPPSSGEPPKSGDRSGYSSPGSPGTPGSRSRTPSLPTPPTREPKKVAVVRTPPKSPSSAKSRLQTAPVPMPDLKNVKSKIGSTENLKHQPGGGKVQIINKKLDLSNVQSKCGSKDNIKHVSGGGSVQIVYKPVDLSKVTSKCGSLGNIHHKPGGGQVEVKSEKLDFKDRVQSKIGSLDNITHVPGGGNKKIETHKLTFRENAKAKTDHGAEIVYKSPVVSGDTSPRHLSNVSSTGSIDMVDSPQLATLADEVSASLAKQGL
# Assay: Tau-AD high throughput screening (counter screen) in T24 cells
# Type: cell-based
# Settings: T24 cells seeded with 416-AD11A lysate
# Experimental: A fragment of the Middle Tempral Gyrus (MTG) from Alzheimer's Disease (AD) patient 2217 was resuspended in 9 volumes of PBS (ml/g of brain) and homogenized 3×12 seconds using a probe homogenizer (Thomas Scientific) with disposable Omni Tip plastic homogenizing probes (Thomas Scinetific Cat No 3409Y77) to generate a 10% brain homogenate (10% AD11-BH). The 10% AD11-BH was clarified of insoluble debris by centrifugation at 800×g for 5 minutes. The resulting supernatant was collected and the protein concentration of this clarified BH (AD11-CBH) was determined by bicinchoninic acid assay (BCA) (Thermo Fisher Cat No. 23227). HEK293 cells stably expressing a C-terminally Clover-tagged truncated 4R-Tau^243-382 transgene containing the P301L and V337M mutations and a C-terminally Ruby-tagged truncated 3R-Tau^243-382 transgene containing the L266V and V337M mutations (128/139 cells) were transfected with the AD11-CBH using lipofectamine 2000 (LF2K) (Thermo Fisher Cat No. 11668500). Briefly, 0.32 μl of LF2K were diluted in 5 μl Opti-MEM (Thermo Scientific Cat No 31985070) per well of a 384-well plate and incubated for 5 min at room temperature (RT). This mixture was added to 0.32 μg of AD11-CBH diluted in 5 μl of PBS per well of a 384-well plate and vortex briefly. The transfection mixture was incubated at room temperature for 90 min. The transfection complexes were subsequently added to a single well of a 384-well plate containing 3500 128/139 cells. After 3 days the cells were harvested, counted and plated at a density of 1 cell/well in a 96-well plate. A clonal cell line containing Clover and Ruby positive Tau aggregates was selected and termed 416-AD11A cells. Following the expansion of these 416-AD11A cells, a cell lysate was prepared by freeze/thaw. The cells from a confluent T175 flask were harvested in 1 ml of PBS containing 1× protease inhibitor cocktail by scraping. The cell suspension was subjected to 4 cycles of freezing in liquid nitrogen for 5 minutes followed by thawing at 37° C. for 5 minutes. The resulting cell lysate was centrifuged at 2000 RPM for 10 minutes to remove the cell debris and the protein concentration of the resulting 416-AD11A lysate was determined by BCA assay and aliquots frozen for future use.
# HEK293 cells stably expressing C-terminally YFP-tagged full length 0N4R-Tau carrying a P301S mutation (T24 cells) are plated at a density of 4000 cells per well of a 384-well black walled, clear bottom plate (Greiner Cat No 5678-1091Q) in 60 μl of complete DMEM (DMEM (Corning Cat No 10-013-CV), 10% FBS (VWR Cat No 97068-085, 0.5% Penicilin/streptomycin (Gibco Cat No 15140-122)) containing 0.1 μg/ml Hoechst Dye (Thermo Scientific Cat No H3570). Transfection complexes are prepared by diluting 0.15 μg of 416-AD11A lysate or HEK lysate in 5 μl of PBS per well to be transfected and 0.15 μl of Lipofectamine 2000 (LF2K) (ThermoFisher Cat No 11668500) in 5 μl of Opti-MEM per well to be transfected in separate tubes. The pre-diluted 416-AD11A or HEK lysates and LF2K are subsequently mixed and allowed to incubate for 90 minutes at RT. A 10 μl aliquot of the 416-AD11A or HEK transfection complexes is added to the appropriate wells of the 384-well plate containing the T24 cells using the Bravo liquid handling platform (Agilent). Wells A23-P24 of the 384-well plate are transfected with HEK lysate to act as a reference point for spontaneous aggregation of 0N4R^P301S and for transfection related toxicity. The dilution of test compounds is performed using the Bravo liquid handling platform (Agilent). The control is DMSO in the absence of any test compound. Briefly, 1 μl of each test compound (5 mM stock) in the 384-well test plate was transferred to a 384-well plate (Greiner Cat No 781280) containing 61.5 μl of complete DMEM to generate a working stock of compounds at 80 μM. […]
row,SMILES,AD Tau Aggregates (% control)
1,CC(=O)Nc1ncc2c(-c3ccccc3C)nn(Cc3ccccc3)c2n1 [Compound 266],98 % control
2,COC(=O)Nc1ncc2c(-c3ccccc3)nn(-c3ccccc3)c2n1 [Compound 274],94 % control
3,CNC(=O)c1ncc2c(-c3ccc(F)cc3)nn(Cc3cccc(F)c3)c2n1 [Compound 260],95 % control
4,CCc1ccccc1-c1nn(-c2ccc(F)cc2)c2nc(C(=O)NC)ncc12 [Compound 245],120 % control
5,O=c1nc2c(ccn2C(F)(F)F)cn1-c1nc(N2Cc3ccccc3C2)oc1-c1ccc(F)cc1 [Compound 242],99 % control
6,CNC(=O)c1ncc2c(-c3ccc(F)cc3)nn(Cc3ccnc(F)c3)c2n1 [Compound 259],99 % control
7,CNC(=O)c1ncc2c(-c3cc4c(cnn4C)cc3F)nn(Cc3ccccc3)c2n1 [Compound 253],96 % control
8,CC(=O)Nc1ncc2c(-c3ccccc3)nn(CC3CCCCC3)c2n1 [Compound 280],90 % control
9,Cc1cc(-c2nc(-n3cc4ccn(C5CC5)c4nc3=O)c(-c3ccc(F)c(F)c3)o2)ncc1F [Compound 234],85 % control
10,CC(=O)Nc1ncc2c(-c3ccccc3)nn(Cc3ccncc3)c2n1 [Compound 279],92 % control
11,CNC(=O)c1ncc2c(-c3ccccc3)nn(Cc3ccccc3)c2n1 [Compound 248],95 % control
12,Cc1ccnn1-c1nc(-n2cc3ccn(C(F)(F)F)c3nc2=O)c(-c2ccc(F)cc2)o1 [Compound 240],95 % control
13,CC(=O)Nc1ncc2c(-c3ccccc3)nn(C(C)c3ccccc3)c2n1 (stereo not shown) [Compound 265],110 % control
14,CNC(=O)c1ncc2c(-c3ccc(F)cc3)nn(CC3CCCCC3)c2n1 [Compound 258],110 % control
15,CNC(=O)c1ncc2c(-c3ccccc3)nn(-c3ccc(F)cc3)c2n1 [Compound 246],120 % control
16,CCC(=O)Nc1ncc2c(-c3ccccc3)nn(Cc3ccc(OC)cc3)c2n1 [Compound 269],100 % control
17,CNC(=O)c1ncc2c(-c3ccc(F)cc3)nn(Cc3ccc(F)cc3)c2n1 [Compound 261],87 % control
18,Cc1ccn(-c2nc(-n3cc4ccn(C(F)(F)F)c4nc3=O)c(-c3ccc(F)cc3)o2)n1 [Compound 241],98 % control
19,CNC(=O)c1ncc2c(-c3ccccc3Cl)nn(-c3ccc(F)cc3)c2n1 [Compound 244],100 % control
20,CC(=O)Nc1ncc2c(-c3ccccc3)nn(Cc3cncc(F)c3)c2n1 [Compound 267],91 % control
21,CNC(=O)c1ncc2c(-c3cccc4c3OC(F)(F)O4)nn(Cc3ccccc3)c2n1 [Compound 254],100 % control
